# According to PMC6851892 (Clinical Pharmacology in Drug Development, 2019):
# Key:
# [1] = cited from earlier work
# [2] = type: in vivo, human (healthy subjects); conditions: human, plasma, oral
# [3] = cited from earlier work; remark: listed apart in the source
# [4] = primary circulating metabolites of ertugliflozin; cited from earlier work
# [5] = tested on: CYP enzymes or transporters; conditions: in vitro; cited from earlier work
# [6] = cited from earlier work; remark: listed apart in the source
# [7] = oral radioactive ertugliflozin dose
Tmax [2] [h],half-life [2] [h],SMILES,Biopharmaceutical Classification System class [1],Excreted in feces [3] [%],Excreted mostly unmetabolized in urine [3] [%],Renal clearance [3],AUC dose dependence ([3]; healthy subjects),Pharmacological activity [4],Inhibition or induction of CYP enzymes or transporters [5],"Unmetabolized drug recovered in urine, % of the administered dose [6] [%]",AUC dose proportionality ([6]; dose range of 0.5 to 300 mg),"Median time to maximum plasma concentration (Tmax) ([6]; fed state, oral) [h]","Excretion of radioactivity in feces, % of the dose [6, 7] [%]","Excretion of radioactivity in urine, % of the dose [6, 7] [%]"
2.2 to 4,11.2 to 12.5,N[C@@H](CC(=O)N1CCn2c(nnc2C(F)(F)F)C1)Cc1cc(F)c(F)cc1F [Sitagliptin],class 1,13,87,approximately 388 mL/min,increases in an approximately dose‐dependent manner,,,,,,,
,,"CCOc1ccc(Cc2cc([C@]34OC[C@](CO)(O3)[C@@H](O)[C@H](O[C@@H]3O[C@H](C(=O)O)[C@@H](O)[C@H](O)[C@H]3O)[C@H]4O)ccc2Cl)cc1 [M5c, 3‐O‐β glucuronide]",,,,,,pharmacologically inactive,,,,,,
~1,11.2 to 13.8,CCOc1ccc(Cc2cc([C@]34OC[C@](CO)(O3)[C@@H](O)[C@H](O)[C@H]4O)ccc2Cl)cc1 [Ertugliflozin],class 1,,,,,,do not inhibit or induce CYP enzymes or transporters,1.5,increases in a dose‐proportional manner,~2,40.9,50.2
